Paper PMC8147781, “Discovery of Pyrrolidine-2,3-diones as Novel Inhibitors of P. aeruginosa PBP3” (Antibiotics, 2021)
≈ marks a conversion by molar mass, not a printed value.

Key:
[1] = target: T1, PBP3 of P. aeruginosa (PaPBP3) (Pseudomonas aeruginosa, UniProt G3XD46); assay: FP-Bocillin FL competition assay; type: binding; settings: 30 min preincubation before Bocillin FL, 37 °C; for IC50: read-out: IC50 Determination with PaPBP3, FP-Bocillin FL Assay
T1 construct: P. aeruginosa PBP3 (amino acids 40 to 563); His-tag; made in house; host or cells: E. coli BL21 (DE3) Rosetta, plasmid pET41_PBP-3
Procedure: Bocillin FL is a fluorescent penicillin V derivate used as a competitor for PBP inhibitors.
Fluorescence polarisation (FP) experiments were carried out as described before. To determine the binding of Bocillin FL to PBP, 200 nM of ^PaPBP3 was incubated for 30 min with 100 nM of Bocillin FL (Thermo Fisher Scientific, Waltham, MA, USA). The fluorescence polarisation signal of free Bocillin FL was monitored in a Pherastar microplate reader (BMG Labtech, Ortenberg, Germany) in the polarisation mode with Ex/Em: 485/520 nm excitation and emission filters. Millipolarisation (mP) units were calculated using the MARS data analysis software v30.40.R2 (BMG Labtech, Ortenberg, Germany). All the experiments were done in Sorensen buffer at 37 °C using flat-bottom, black 96-well plates. […] Bocillin FL was diluted in Sorensen buffer and added to the reaction and directly measured for 30 min at 37 °C. The FP was continuously measured in the presence and absence of compound and enzyme. […] The estimated IC50 values were established by sigmoidal nonlinear regression, using Prims v.8 software.

[2] = target: T1, PBP3 of P. aeruginosa (PaPBP3); assay: S2dfluo fluorescence transpeptidase assay; type: biochemical; settings: for IC50: 300 nM PaPBP3, 30 min preincubation, 37 °C, read-out: IC50 Determination with PaPBP3, S2dfluo Assay; for inhibition at 100 µM: read-out: PBP3 Inhibition at 100 µM (%)
Procedure: The assays were carried out in the presence of 5% DMSO and 0.01% Triton X100 to avoid the formation of colloidal structures and adsorption of protein and/or compounds to surfaces. The Z’-factor determined for the assay was 0.73 ± 0.28, indicating the suitability and robustness of the assay for high throughput screening (HTS) (Figure 1B,C).
The activity of soluble ^PaPBP3 (300 nM) was measured in the presence of 0.8 mM S2d, 1 mM D-alanine and 0.5 mM mBBr for 25 min by monitoring the increase in the fluorescence intensity of mBBr at Ex/Em: 394/490 nm using an Infinite M1000 microplate reader (Tecan, Männedorf, Switzerland). To test the effect of inhibitors, 100 µM or 0.8 to 100 µM of compounds diluted in 96% DMSO were incubated for 30 min and 450 rpm with 300 nM soluble PBP3. The incubation period was set to improve the binding of non-covalent inhibitors and 0.01% Triton X100 (Sigma-Aldrich, Taufkirchen, Germany) was added to prevent aggregation of compounds. The enzyme reaction was started by adding a substrate mix of 0.8 mM S2d and […]. The enzyme, compound and substrate mix were mixed 1:1, pipetted with a Liquidator 96 (Melter Toledo, Gießen, Germany) and the fluorescence intensity was directly monitored with an Infinite M1000 microplate reader (Tecan) at Ex/Em: 394/490 nm. The assay was performed in black, flat-bottom 96-well microplates (Greiner Bio-One, Kremsmünster, Austria) at 37 °C in Sorensen Phosphate Buffer (57 mM Na2HPO4 and 10 mM KH2PO4, pH 7.5 + 0.01% Triton X-100). The velocity of the PBP3 reaction was calculated in the presence of each concentration of compound and the velocity values were used to estimate IC50 by sigmoidal nonlinear regression, using Prism v.9 software (San Diego, CA, USA) and the velocity of the reaction at each concentration.

[3] = test system: K. pneumoniae clinical isolate; assay: MIC broth microdilution, K. pneumoniae; type: cell-based; settings: Klebsiella pneumoniae; Table S3
Procedure: (§1) MIC determination was performed via standard broth microdilution according to the Clinical & Laboratory Standards institute guidelines. Overnight colonies grown on BD-Columbia agar with 5% Sheep Blood (Becton Dickinson, Franklin Lakes, NJ, USA), were diluted in Mueller Hinton Broth 2 cation adjusted (MH+) medium (Thermo Fisher Scientific) to a concentration of 5 × 10^5 CFU/mL. Serial dilutions (1:2) of test compounds were incubated at 37 °C with 5 × 10^4 bacteria in a final volume of 100 μL. Sterile and growth controls in the presence of 1% DMSO and PMBN if the case, and the positive controls, aztreonam (AZT) and tigecycline (TIG) were included in the experiments (Table S4). The MICs were determined visually after 18 h at 37 °C and confirmed by the addition of 10% PrestoBlue (ThermoFisher Scientific) reagent according to the manufacture’s protocol. The fluorescence signal of PrestoBlue reagent was measured at Ex/Em: 550/595 nm after 30 min incubation at 37 °C using at a ClarioStar microplate reader (BMG Labtech). PrestoBlue reduction occurs in the presence of living cells and consequently turns red in colour and is highly fluorescent.

S. pneumoniae = assay: MIC broth microdilution, S. pneumoniae; type: cell-based; settings: Streptococcus pneumoniae; Table S3; read-out: MIC (µM) S. pneumoniae
Procedure: as §1

S. aureus 133 = assay: MIC broth microdilution, S. aureus; type: cell-based; settings: Staphylococcus aureus, 133; Table S3
Procedure: as §1

[4] = test system: T-lymphoblast CCRF-CEM cell line; assay: Cytotoxicity assay (PrestoBlue), CCRF-CEM; settings: CC50, 72 h
Procedure: (§2) We finally tested the cytotoxicity of the compounds against four eukaryotic cell lines (Table 2 and Table S5), NRK-52E, an epithelial kidney cell line of Rattus norvegicus; Hep G2, an human epithelial liver cell line; and two suspension cell lines: CCRF-CEM, a T lymphoblast; and H9, a cutaneous T lymphocyte cell line.
(§3) Cell lines stored at −120 °C were thawed to 37 °C and resuspended in 10 mL of medium pre-warmed to 37 °C. Cells were pelleted at 300× g for 10 min, and then resuspended in fresh medium, seeded in a T-75 culture flask, and placed in a CO2 incubator (37 °C with 5% CO2 tension). Once the cells reached approximately 70–80% confluency, they were then passaged regularly. The adherent cell lines NRK52E, HepG2 and Huh 7 were washed once with 10 mL DPBS and detached with Trypsin-EDTA for 5 to 7 min and resuspended in 15 mL of the appropriate medium. The suspension cell line CCRF-CEM were diluted and resuspended in fresh RPMI 1640 PAN medium. To calculate the cell density, the cell resuspensions were diluted 1:6 with DPBS. Equal volumes of cell suspension and Trypan Blue were mixed and gently loaded into a haemocytometer (INCYTO, 31056 Republic of Korea). In each experiment, cell concentrations were adjusted to reach a concentration of 2.5 × 10^3 cell/well for NRK52E, 5 × 10^3 cell/well for HepG2, 6.2 × 10^4 cell/well for CCRF-CEM and 3 × 10^3 for H9. The cells were incubated with decreasing concentration of compounds (1 µL in 96% DMSO) for 72 h at 37 °C with 5% CO2 tension. Cycloheximide, a cytotoxic compound that interferes with the translocation step in eukaryotic protein synthesis was used as a control for the experiments. The assay was carried out in flat-bottom, transparent 96-well plates. Cell viability was determined using the PrestoBlue reagent (Thermo Fisher Scientific, Waltham, MA, USA) according to the manufacture’s protocol. First, 10× PrestoBlue was added to each well to obtain a 1× solution, and incubated at 37 °C for 45 min. Then, fluorescence was measured at Ex/Em: 550/595 nm using a ClarioStar microplate reader (BMG Labtech). Cytotoxicity was determined as the percentage of the difference in absorbance of the untreated sample to the treated sample. CC50 was calculated using the values obtained in each concentration using the sigmoidal dose-response by Prism v.8. The media used in each cell line is detailed in Table S6.

B. subtilis 168 = assay: MIC broth microdilution, B. subtilis; type: cell-based; settings: Bacillus subtilis, 168; Table S3
Procedure: as §1

[5] = test system: H9, cutaneous T lymphocyte cell line; assay: Cytotoxicity assay (PrestoBlue), H9; settings: CC50, 72 h
Procedure: as §2, §3

E. coli Neumann = assay: MIC broth microdilution, E. coli; type: cell-based; settings: Escherichia coli; Table S3; read-out: MIC (µM) E. coli Neumann
Procedure: as §1

[6] = test system: Hep G2, epithelial liver cell line; assay: Cytotoxicity assay (PrestoBlue), HepG2; settings: CC50, 72 h
Procedure: as §2, §3

A. baumannii ATCC15308 = assay: MIC broth microdilution, A. baumannii; type: cell-based; settings: 10 µg/mL PMBN
Procedure: as §1

[7] = test system: NRK-52E, epithelial kidney cell line; assay: Cytotoxicity assay (PrestoBlue), NRK52E; settings: CC50, 72 h
Procedure: as §2, §3

T1 sequence (G3XD46 40-563): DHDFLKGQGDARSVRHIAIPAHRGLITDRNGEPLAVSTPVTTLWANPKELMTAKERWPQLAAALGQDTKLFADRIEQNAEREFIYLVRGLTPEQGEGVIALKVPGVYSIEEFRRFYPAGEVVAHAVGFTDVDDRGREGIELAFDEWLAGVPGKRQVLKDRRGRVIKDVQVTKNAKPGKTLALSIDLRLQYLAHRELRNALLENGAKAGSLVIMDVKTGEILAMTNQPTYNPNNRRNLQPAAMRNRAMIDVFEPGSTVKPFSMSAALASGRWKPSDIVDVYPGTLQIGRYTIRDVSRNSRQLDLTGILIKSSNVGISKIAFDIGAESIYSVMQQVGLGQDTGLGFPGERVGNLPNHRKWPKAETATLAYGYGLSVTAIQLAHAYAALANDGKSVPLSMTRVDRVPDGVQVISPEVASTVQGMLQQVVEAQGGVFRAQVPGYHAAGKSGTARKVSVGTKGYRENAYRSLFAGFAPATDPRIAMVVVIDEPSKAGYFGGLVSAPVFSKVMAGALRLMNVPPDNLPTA

Row | SMILES | IC50 [1] [µM] | IC50 [2] [µM] | inhibition at 100 µM [2] [%] | also measured
1 | COc1ccc(C2=C(O)C(=O)N(c3nc(SCc4ccccc4)n[nH]3)C2c2ccccc2F)cc1 (stereo not drawn) [Compound 7] | 58 ± 21 | 65 ± 19 | 62 | 
2 | O=C(C1=C(O)C(=O)N(Cc2c[nH]c3ccccc23)C1c1ccc(Cl)cc1)c1ccc(Br)cc1 (stereo not drawn) [Compound 39] | 11 ± 4 | 24 ± 7 |  | MIC [3]: > 100 µM; MIC (S. pneumoniae): 25 µM (≈ 13 µg/mL); MIC (S. aureus 133): 25 µM (≈ 13 µg/mL); Cytotoxicity CCRF-CEM [4]: >100 µM; MIC (B. subtilis 168): > 100 µM; Cytotoxicity effect (µM) T-lymphocyte H9 [5]: > 100 µM; MIC (E. coli Neumann): > 100 µM; Cytotoxicity effect (µM) Epithelial liver HepG2 [6]: > 100 µM; MIC (µM) A. baumanii ATCC15308 (A. baumannii ATCC15308): > 100 µM; Cytotoxicity effect (µM) Epithelial kidney NRK52E [7]: > 100 µM
3 | CSc1ccc(C2c3c(oc4cc(C)cc(C)c4c3=O)C(=O)N2CC2CCCO2)cc1 (stereo not drawn) [Compound 9] | 18 ± 3 | 99 ± 1 | 60 | 
4 | COc1ccc(C(=O)C2=C(O)C(=O)N(CCc3c(C)[nH]c4ccccc34)C2c2ccc(Cl)cc2)cc1 (stereo not drawn) [Compound 6] | 9 ± 6 | 63 ± 4 | 92 ± 7 | 
5 | COc1ccc(N2C(=O)C(O)=C(C(=O)c3ccc4c(c3)OCO4)C2c2ccc(Br)cc2)cc1 (stereo not drawn) [Compound 5] | 69 ± 13 | 61 ± 1 |  | 
6 | CCCCCCOc1cccc(N2C(=O)C(O)=C(C(=O)c3ccccc3)C2c2ccccc2F)c1 (stereo not drawn) [Compound 3] | > 100 | 19 ± 1 | 100 ± 0.8 | IC50 Determination with PaPBP3, FP-Bocillin FL Assay [1]: failed to inhibit Bocillin FL binding
